{
  "source": "patent US7741479B2",
  "about": "“Urea inhibitors of MAP kinases” (Locus Pharmaceuticals, Inc., priority 2004, dated 2010)",
  "data": [
    {"biological_target": "T1, p38 (Homo sapiens, UniProt Q16539)", "T1 construct": "made in house", "T1 sequence (Q16539 whole entry, the tested form may be a part)": "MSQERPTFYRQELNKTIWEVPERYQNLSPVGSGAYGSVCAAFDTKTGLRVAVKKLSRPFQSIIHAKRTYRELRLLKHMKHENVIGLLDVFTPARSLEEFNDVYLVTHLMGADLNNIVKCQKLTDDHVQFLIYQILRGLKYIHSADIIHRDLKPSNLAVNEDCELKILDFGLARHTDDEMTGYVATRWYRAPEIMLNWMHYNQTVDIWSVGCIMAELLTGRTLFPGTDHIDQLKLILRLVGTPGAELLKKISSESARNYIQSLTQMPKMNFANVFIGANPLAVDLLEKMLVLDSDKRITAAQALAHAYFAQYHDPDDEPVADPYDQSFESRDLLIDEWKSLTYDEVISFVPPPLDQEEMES", "assay": "Protein Kinase Assay (33P incorporation from γ-[33P]ATP into GST-ATF-2 substrate)", "assay_type": "biochemical", "conditions": "compound at 3 μM; read-out: Protein Kinase (% Inhibition at 3 μM)", "how_it_was_run": "(§1)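 Non-activated human p38 (10 nM) was preincubated with compounds for 20 min at 30° C, then GST-ATF-2 (aa 19-96) and γ-[33P]ATP were added for 70 min at 30° C. Reactions were stopped with phosphoric acid; phosphorylated substrate was captured on phosphocellulose and scintillation-counted.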", "units": {"inhibition at 3 µM": "%"}, "values": [
      {"smiles": "CC(C)(C)c1cc(C(=O)N2CCS(=O)(=O)CC2)c(NC(=O)Nc2ccc(C#N)cc2C(F)(F)F)s1", "note": "[Example 84, 1-[5-tert-butyl-3-(1,1-dioxo-1λ^6-thiomorpholine-4-carbonyl)thiophen-2-yl]-3-(4-cyano-2-trifluoromethylphenyl)urea]", "inhibition at 3 µM": "76 to 100"},
      {"smiles": "CC(C)(C)c1cc(C(=O)N2CCS(=O)(=O)CC2)c(NC(=O)Nc2cnc(O)c3ccccc23)s1", "note": "[Example 85, 1-[5-tert-butyl-3-(1,1-dioxo-1λ^6-thiomorpholine-4-carbonyl)thiophen-2-yl]-3-(1-hydroxyisoquinolin-4-yl)urea]", "inhibition at 3 µM": "26 to 50"},
      {"smiles": "CC(C)(C)c1cc(C(=O)N[C@H]2CC(=O)NC2=O)c(NC(=O)Nc2cccc3ccccc23)s1", "note": "[Example 86]", "inhibition at 3 µM": "76 to 100"},
      {"smiles": "CC1C(=O)NCCN1C(=O)c1cc(C(C)(C)C)sc1NC(=O)Nc1cccc2ccccc12", "note": "(centres unmarked) [Example 87, 1-[5-tert-butyl-3-(2-methyl-3-oxopiperazine-1-carbonyl)thiophen-2-yl]-3-naphthalen-1-ylurea]", "inhibition at 3 µM": "76 to 100"},
      {"smiles": "COC(=O)CC1C(=O)NCCN1C(=O)c1cc(C(C)(C)C)sc1NC(=O)Nc1cccc2ccccc12", "note": "(centres unmarked) [Example 88, {1-[5-tert-butyl-2-(3-naphthalen-1-yl-ureido)thiophene-3-carbonyl]-3-oxo-piperazin-2-yl}-acetic acid methyl ester]", "inhibition at 3 µM": "76 to 100"},
      {"smiles": "CC(C)(C)c1cc(C(=O)N2CCNC(=O)CC2)c(NC(=O)Nc2ccc(C#N)cc2C(F)(F)F)s1", "note": "[Example 89, 1-[5-tert-butyl-3-(5-oxo-[1,4]diazepane-1-carbonyl)thiophen-2-yl]-3-(4-cyano-2-trifluoromethylphenyl)urea]", "inhibition at 3 µM": "76 to 100"},
      {"smiles": "CC(C)(C)c1cc(C(=O)N2CCNC(=O)CC2)c(NC(=O)Nc2ccc(C#N)cc2Cl)s1", "note": "[Example 90, 1-[5-tert-Butyl-3-(5-oxo-[1,4]diazepane-1-carbonyl)thiophen-2-yl]-3-(2-chloro-4-cyanophenyl)urea]", "inhibition at 3 µM": "76 to 100"},
      {"smiles": "CC(C)(C)c1cc(C(=O)N2CCNS(=O)(=O)CC2)c(NC(=O)Nc2ccc(C#N)cc2Cl)s1", "note": "[Example 92, 1-[5-tert-Butyl-3-(1,1-dioxo-1λ^6-[1,2,5]thiadiazepane-5-carbonyl)thiophen-2-yl]-3-(4-cyano-2-chlorophenyl)urea]", "inhibition at 3 µM": "76 to 100"},
      {"smiles": "CC(C)(C)c1cc(C(=O)N2CCNS(=O)(=O)CC2)c(NC(=O)Nc2ccc3c(c2)OCO3)s1", "note": "[Example 93, 1-Benzo[1,3]dioxol-5-yl-3-[5-tert-butyl-3-(1,1-dioxo-1λ^6-[1,2,5]thiadiazepane-5-carbonyl)thiophen-2-yl]urea]", "inhibition at 3 µM": "76 to 100"},
      {"smiles": "CC(C)(C)c1cc(C(=O)N2CCNS(=O)(=O)CC2)c(NC(=O)Nc2ccc3c(c2)OC(F)(F)O3)s1", "note": "[Example 94, 1-[5-tert-Butyl-3-(1,1-dioxo-1λ^6-[1,2,5]thiadiazepane-5-carbonyl)thiophen-2-yl]-3-(2,2-difluorobenzo[1,3]dioxol-5-yl)urea]", "inhibition at 3 µM": "76 to 100"},
      {"smiles": "COc1ccc(NC(=O)Nc2sc(C(C)(C)C)cc2C(=O)N2CCNS(=O)(=O)CC2)cc1Cl", "note": "[Example 95, 1-[5-tert-Butyl-3-(1,1-dioxo-1λ^6-[1,2,5]thiadiazepane-5-carbonyl)thiophen-2-yl]-3-(3-chloro-4-methoxyphenyl)urea]", "inhibition at 3 µM": "76 to 100"},
      {"smiles": "CC(C)(C)c1cc(C(=O)N2CCNS(=O)(=O)CC2)c(NC(=O)Nc2ccc(Cl)c(Cl)c2)s1", "note": "[Example 96, 1-[5-tert-Butyl-3-(1,1-dioxo-1λ^6-[1,2,5]thiadiazepane-5-carbonyl)thiophen-2-yl]-3-(3,4-dichlorophenyl)urea]", "inhibition at 3 µM": "76 to 100"}
    ]},
    {"biological_target": "T1, p38", "assay": "Protein Kinase Assay (33P incorporation from γ-[33P]ATP into GST-ATF-2 substrate)", "assay_type": "biochemical", "conditions": "same procedure at 0.5 μM", "how_it_was_run": "as §1", "units": {"inhibition at 0.5 µM": "%"}, "values": [
      {"smiles": "CC(C)(C)c1cc(C(=O)NCc2cccnc2)c(NC(=O)Nc2cccc(Cl)c2Cl)s1", "note": "[Example 130, 5-tert-butyl-2-[3-(2,3-dichlorophenyl)ureido]thiophene-3-carboxylic acid (pyridin-3-ylmethyl)amide]", "inhibition at 0.5 µM": "76 to 100"},
      {"smiles": "CC(C)(C)c1cc(C(=O)NCc2cccnc2)c(NC(=O)Nc2cccc3ccccc23)s1", "note": "[Example 131, 5-tert-Butyl-2-(3-naphthalen-1-yl-ureido)thiophene-3-carboxylic acid (pyridin-3-ylmethyl)amide]", "inhibition at 0.5 µM": "76 to 100"},
      {"smiles": "CC(C)(C)c1cc(C(=O)NCc2cccnc2)c(NC(=O)Nc2ccc3ccccc3c2)s1", "note": "[Example 132, 5-tert-Butyl-2-(3-naphthalen-2-yl-ureido)thiophene-3-carboxylic acid (pyridin-3-ylmethyl)amide]", "inhibition at 0.5 µM": "76 to 100"},
      {"smiles": "CC(C)(C)c1cc(C(=O)Nc2ccc3nn[nH]c3c2)c(NC(=O)Nc2cccc(Cl)c2Cl)s1", "note": "[Example 133, 5-tert-Butyl-2-[3-(2,3-dichlorophenyl)ureido]thiophene-3-carboxylic acid (3H-benzotriazol-5-yl)amide]", "inhibition at 0.5 µM": "76 to 100"},
      {"smiles": "CCC1C(=O)NCCN1C(=O)c1cc(C(C)(C)C)sc1NC(=O)Nc1cccc(Cl)c1Cl", "note": "(centres unmarked) [Example 134, 1-[5-tert-Butyl-3-(2-ethyl-3-oxopiperazine-1-carbonyl)thiophen-2-yl]-3-(2,3-dichlorophenyl)urea]", "inhibition at 0.5 µM": "76 to 100"},
      {"smiles": "C[C@H]1C(=O)NCCN1C(=O)c1cc(C(C)(C)C)sc1NC(=O)Nc1cccc(Cl)c1Cl", "note": "[Example 135, 1-[5-tert-Butyl-3-(2-methyl-3-oxopiperazine-1-carbonyl)thiophen-2-yl]-3-(2,3-dichlorophenyl)urea]", "inhibition at 0.5 µM": "76 to 100"},
      {"smiles": "CC(C)(C)c1cc(C(=O)N2CCNC(=O)C2(C)C)c(NC(=O)Nc2cccc(Cl)c2Cl)s1", "note": "[Example 136, 1-[5-tert-Butyl-3-(2,2-dimethyl-3-oxo-piperazine-1-carbonyl)thiophen-2-yl]-3-(2,3-dichlorophenyl)urea]", "inhibition at 0.5 µM": "76 to 100"}
    ]},
    {"biological_target": "T1, p38", "assay": "Protein Kinase Assay (33P incorporation from γ-[33P]ATP into GST-ATF-2 substrate)", "assay_type": "biochemical", "conditions": "tested at 3 μM according to the procedure described above", "how_it_was_run": "as §1", "values": [
      {"smiles": "CC(C)(C)c1cc(C(=O)N2CCNC(=O)CC2)c(NC(=O)NC2CCNCC2)s1", "note": "[Example 120, 1-[5-tert-Butyl-3-(5-oxo-[1,4]diazepane-1-carbonyl)thiophen-2-yl]-3-piperidin-4-ylurea]", "protein kinase inhibition": "0-25%"}
    ]}
  ]
}
